Some results are limits rather than exact numbers.

These results are taken from patent publication US9334267B2, “RAF inhibitor compounds” (Deciphera Pharmaceuticals, LLC, priority 2012, dated 2016).

For experiment [1], the target named is T1, human B-Raf V600E (Homo sapiens, UniProt P15056, V600E).
T1 construct: B-RafV600E (residues 433-726 containing V600E mutation) containing an N-terminal purification tag is expressed and purified; made in house
Kind of experiment: Enzymatic assay of B-Raf V600E kinase activity (Raf/MEK1 ATPase, coupled PK/LDH, A340). The experiment is classed as biochemical. As to conditions: read-out: Enzyme IC50, nM B-Raf V600E. The protocol:
Test compounds are evaluated for their inhibitory activities against one or more of human wild type B-Raf, human wild type C-Raf, human B-Raf V600E, human B-Raf V600E+T529I or human B-Raf V600E+G468A. T529I is a threonine to isoleucine B-Raf gatekeeper mutation and G468A is a B-Raf secondary mutation at G1403C in exon 11. The enzymatic assays of B-Raf, C-Raf and B-Raf mutations evaluate a property of Raf and MEK1 complex, which in the presence of ATP, catalyzes an enhanced ATP hydrolysis (Rominger, et al, Arch. Biochem. Biophys. 2007, 464: 130-137; US Patent Publication No. 2006/0211073). The ADP formed is monitored by the well-known coupled PK/LDH (pyruvate kinase/lactate dehydrogenase) system in the form of NADH oxidation, which can be monitored and detected spectrophotometrically by absorbance at 340 nm (A340; for principal of the method see Schindler et al, Science, 2000, 289: 1938-1942). Raf activated MEK1 ATPase activity is a property shared by all forms of Raf proteins.
B-RafV600E (residues 433-726 containing V600E mutation) containing an N-terminal purification tag is expressed and purified essentially as described previously (Wan et al, Cell, 2004, 116, 855-867).
Test compounds are evaluated for their inhibitory activities against one or more of wild type B-Raf, wild type C-Raf, B-Raf V600E, B-Raf V600E+T529I and B-Raf V600E+G468A. T529I is a B-Raf gatekeeper mutation and G468A is a B-Raf secondary mutation. The enzymatic assays of B-Raf, C-Raf and B-Raf mutations evaluate a property of Raf and MEK1 complex, which in the presence of ATP, catalyzes an enhanced ATP hydrolysis (Rominger, et al, Arch. Biochem. Biophys. 2007, 464: 130-137). The ADP formed is monitored by the well-known coupled PK/LDH (pyruvate kinase/lactate dehydrogenase) system in the form of NADH oxidation, which can be monitored and detected by absorbance at 340 nm (A340; for principal of the method see Schindler et al, Science, 2000, 289: 1938-1942). Raf activated MEK1 ATPase activity is a property shared by all forms of Raf proteins. In the B-Raf wild type enzymatic assay, the reaction mixture contains 1.2 nM B-Raf, 30 nM MEK1, 1000 uM ATP, 3.5 units (per 100 ul) of PK, 5 units (per 100 ul) of LDH, 1 mM phosphoenol pyruvate (PEP), and 280 uM of NADH. In the C-Raf assay, the reaction mixture contains 0.6 nM C-Raf, 26 nM MEK1, 2000 uM ATP, and the same amount of PK, LDH, PEP and NADH as above. In the B-Raf V600E assay, the reaction mixture contains […] B-Raf V600E, 26 nM MEK1, 200 uM ATP and the same amount of PK, LDH, PEP and NADH as above. In the B-RafV600E+T529I assay, the reaction mixture contains 6.2 nM B-Raf V600E+T529I, 30 nM MEK1, 200 uM ATP and the same amount of PK, LDH, PEP and NADH as above. In the B-Raf V600E+G468A assay, the reaction mixture contains 3.5 nM B-Raf, 30 nM MEK1, 200 uM ATP and the same amount of PK, LDH, PEP and NADH as above. All assays are started by mixing the above mixture with test compound and monitoring at A340 continuously for approximately 5 hr. […] In the aforementioned assays, the enzyme constructs can be screened prior to or after cleavage of the N-terminal purification tag.

Experiment [2] has as its system HCT-116 cells. The experiment is described as follows: HCT-116 cell proliferation assay (resazurin). The experiment is classed as cell-based. As to conditions: Homo sapiens, K-Ras mutation B-Raf wild type, read-out: Cell Proliferation Inhibition IC50, nM HCT-116. In general terms: The colour change of resazurin is a common sign of viable cells or microbes.
In experiment [3] the target is T2, human wild type c-KIT (Homo sapiens, UniProt P10721).
T2 construct: GST (N); made in house
T2 sequence (P10721 26-976): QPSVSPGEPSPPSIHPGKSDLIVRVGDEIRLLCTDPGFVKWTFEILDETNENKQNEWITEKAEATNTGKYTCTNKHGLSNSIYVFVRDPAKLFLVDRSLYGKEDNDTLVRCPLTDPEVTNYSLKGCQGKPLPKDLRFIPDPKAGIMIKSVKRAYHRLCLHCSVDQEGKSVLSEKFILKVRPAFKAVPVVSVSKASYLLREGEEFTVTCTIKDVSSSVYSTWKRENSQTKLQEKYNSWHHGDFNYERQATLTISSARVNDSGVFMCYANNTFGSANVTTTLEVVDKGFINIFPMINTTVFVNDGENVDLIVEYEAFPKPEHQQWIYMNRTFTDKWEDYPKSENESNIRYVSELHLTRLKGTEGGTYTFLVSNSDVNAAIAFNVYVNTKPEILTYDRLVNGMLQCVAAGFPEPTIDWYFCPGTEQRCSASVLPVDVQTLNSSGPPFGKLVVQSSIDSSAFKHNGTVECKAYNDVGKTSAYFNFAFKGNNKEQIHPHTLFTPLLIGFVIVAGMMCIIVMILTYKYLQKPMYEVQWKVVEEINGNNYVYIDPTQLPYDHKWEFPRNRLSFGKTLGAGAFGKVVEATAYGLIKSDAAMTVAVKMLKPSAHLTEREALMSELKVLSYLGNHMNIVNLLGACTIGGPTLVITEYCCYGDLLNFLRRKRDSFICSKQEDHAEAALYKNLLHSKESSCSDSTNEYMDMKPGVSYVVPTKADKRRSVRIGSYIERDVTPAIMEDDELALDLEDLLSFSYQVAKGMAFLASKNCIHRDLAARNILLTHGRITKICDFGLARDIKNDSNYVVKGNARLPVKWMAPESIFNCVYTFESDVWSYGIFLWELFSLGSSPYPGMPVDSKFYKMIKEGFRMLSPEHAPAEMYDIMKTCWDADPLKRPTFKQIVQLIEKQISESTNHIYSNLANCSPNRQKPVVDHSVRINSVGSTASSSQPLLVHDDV
Kind of experiment: Enzymatic assay of c-Kit kinase activity (poly E4Y phosphorylation, coupled PK/LDH). The experiment is classed as biochemical. The source says: c-Kit is an important oncogene, and its overexpression and genetic mutations often occur in melanoma and gastrointestinal stromal tumor (GIST) patients. In the c-Kit enzymatic assay, the phosphorylation of poly E4Y by ATP catalyzed by human c-Kit is monitored spectrophotometrically. The ADP produced from the kinase reaction is coupled to pyruvate kinase/lactate dehydrogenase (PK/LDH) reactions where NAD is formed from pyruvate and NADH. NADH can be detected by absorbance at 340 nm, as described above for enzymatic assays of kinase activities of B-Raf, C-Raf and B-Raf mutations.
The assay reaction mixture includes 6 nM human wild type c-KIT, 1 mg/mL Poly (Glu,Tyr) (Sigma), 1 mM Phosphoenol-pyruvate, 280 μM NADH, 5 U/3.5 U (per 100 ul) Pyruvate Kinase/Lactate Dehydrogenase, 85 mM Tris, pH 7.5, 17 mM MgCl2, 0.0042% Triton® X-100, 0.005% BSA, 1% DMSO. Test compound is incubated with the reaction mixture for 0.5 hour before adding 200 μM ATP to start the reaction at 30° C.

Experiment [4] deals with HT-29 cells. Kind of experiment: HT-29 cell proliferation assay (resazurin). The experiment is classed as cell-based. As to conditions: Homo sapiens, V600E mutation, read-out: Cell Proliferation Inhibition IC50, nM HT-29. The protocol: HT-29 cells (catalog #HTB-38) are obtained from the American Type Culture Collection (ATCC, Manassas, Va.). Briefly, cells are grown in McCoy's 5A supplemented with 10% characterized fetal bovine serum (Invitrogen, Carlsbad, Calif.), and 1% Penicillin/Streptomycin/L-Glutamine at 37 degrees Celsius, 5% CO2, and 95% humidity. Cells are allowed to expand until reaching 75-90% confluency at which point they are subcultured or harvested for assay use. A serial dilution of test compound is dispensed into a 384-well black clear bottom plate in triplicate. One thousand two-hundred fifty cells are added per well in 50 μL complete growth medium in the 384-well plate. Plates are incubated for 67 hours at 37 degrees Celsius, 5% CO2, and 95% humidity. At the end of the incubation period, 10 μL of a 440 μM solution of resazurin (Sigma, St. Louis, Mo.) in PBS is added to each well of the plate and plates are incubated for an additional 5 hours at 37 degrees Celsius, 5% CO2, and 95% humidity. Plates are read on a Synergy2 reader (Biotek, Winooski, Vt.) using an excitation of 540 nm and an emission of 600 nm. Data is analyzed using Prism software (Graphpad, San Diego, Calif.) to calculate IC50 values.
The A375, HT-29, and Colo-205 cells (ATCC) harbor a V600E mutation.

T1 sequence (P15056 433-726 V600E): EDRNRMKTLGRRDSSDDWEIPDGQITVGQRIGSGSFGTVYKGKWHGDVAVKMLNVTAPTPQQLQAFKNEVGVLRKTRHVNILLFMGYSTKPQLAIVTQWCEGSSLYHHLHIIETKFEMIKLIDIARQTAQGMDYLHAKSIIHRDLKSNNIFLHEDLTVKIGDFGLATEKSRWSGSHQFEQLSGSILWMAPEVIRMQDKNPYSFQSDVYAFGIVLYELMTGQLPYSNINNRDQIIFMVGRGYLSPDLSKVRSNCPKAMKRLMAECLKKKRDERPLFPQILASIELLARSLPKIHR

`Cc1cc(F)c(NC(=O)NCCC(C)(C)F)cc1-c1cc2cnc(N)nc2nc1C` [Example 28, 1-(5-(2-Amino-7-methylpyrido[2,3-d]pyrimidin-6-yl)-2-fluoro-4-methylphenyl)-3-(3-fluoro-3-methylbutyl)urea]: the IC50 is < 150 nM in experiment [1], 1000 to 10000 nM in experiment [2], < 150 nM in experiment [3] and 100 to 1000 nM in experiment [4].

With `COCCNc1ncc2cc(-c3cc(NC(=O)NCCC(C)(C)C)c(F)cc3C)c(C)nc2n1` [Example 5, 1-(3,3-Dimethylbutyl)-3-(2-fluoro-5-(2-((2-methoxyethyl)amino)-7-methylpyrido[2,3-d]pyrimidin-6-yl)-4-methylphenyl)urea], the IC50 in experiment [1] was < 150 nM; in experiment [2], 100 to 1000 nM; in experiment [3] it was < 150 nM; in experiment [4], < 100 nM.

Turning to `CNc1ncc2cc(-c3cc(NC(=O)NCCC(C)(C)F)c(F)cc3C)c(C)nc2n1` [Example 4, 1-(3-Fluoro-3-methylbutyl)-3-(2-fluoro-4-methyl-5-(7-methyl-2-(methylamino)pyrido[2,3-d]pyrimidin-6-yl)phenyl)urea], the IC50 in experiment [1] is < 150 nM; in experiment [2], 100 to 1000 nM; in experiment [3], < 150 nM; in experiment [4], < 100 nM.

For `Cc1cc(F)c(NC(=O)NCCC(C)(C)F)cc1-c1cc2cnc(NC3COC3)nc2nc1C` [Example 25, 1-(3-Fluoro-3-methylbutyl)-3-(2-fluoro-4-methyl-5-(7-methyl-2-(oxetan-3-ylamino)pyrido[2,3-d]pyrimidin-6-yl)phenyl)urea], the IC50 was < 150 nM in experiment [1], 100 to 1000 nM in experiment [2], < 150 nM in experiment [3] and < 100 nM in experiment [4].

As to `CNc1ncc2cc(-c3cc(NC(=O)NCC(O)C(C)(C)C)c(F)cc3C)c(C)nc2n1` (stereo not shown) [Example 15, 1-[2-Fluoro-4-methyl-5-(7-methyl-2-methylamino-pyrido[2,3-d]pyrimidin-6-yl)phenyl]-3-(2-hydroxy-3,3-dimethyl-butyl)urea], the IC50 in experiment [1] was < 150 nM; in experiment [2] it was 100 to 1000 nM; in experiment [3], < 150 nM; in experiment [4] it was < 100 nM.

As to `COCCNc1ncc2cc(-c3cc(NC(=O)NC4CC(C)(C)C4)c(F)cc3C)c(C)nc2n1` [Example 31, 1-(3,3-Dimethylcyclobutyl)-3-(2-fluoro-5-(2-((2-methoxyethyl)amino)-7-methylpyrido[2,3-d]pyrimidin-6-yl)-4-methylphenyl)urea], the IC50 in experiment [1] was < 150 nM; in experiment [2], 100 to 1000 nM; in experiment [3], < 150 nM; in experiment [4], < 100 nM.

As for `CNc1ncc2cc(-c3ccc(F)c(NC(=O)NCCC(C)(C)C)c3)c(C)nc2n1` [Example 2, 1-(3,3-Dimethylbutyl)-3-(2-fluoro-5-(7-methyl-2-(methylamino)pyrido[2,3-d]pyrimidin-6-yl)phenyl)urea], the IC50 is < 150 nM in experiment [1], 100 to 1000 nM in experiment [2], < 150 nM in experiment [3] and < 100 nM in experiment [4].

For the compound `CNc1ncc2cc(-c3cc(NC(=O)NCC(O)C(C)(C)C)c(F)cc3C)cnc2n1` (stereo not shown) [Example 8, 1-[2-Fluoro-4-methyl-5-(2-methylaminopyrido[2,3-d]pyrimidin-6-yl)phenyl]-3-(2-hydroxy-3,3-dimethyl-butyl)urea], the IC50 in experiment [1] was < 150 nM; in experiment [2], 1000 to 10000 nM; in experiment [3], < 150 nM; in experiment [4] it was 100 to 1000 nM.

Turning to `CNc1ncc2cc(-c3cc(NC(=O)NCCC(C)(C)C)c(F)cc3F)c(C)nc2n1` [Example 1, 1-(2,4-Difluoro-5-(7-methyl-2-(methylamino)pyrido[2,3-d]pyrimidin-6-yl)phenyl)-3-(3,3-dimethylbutyl)urea], the IC50 in experiment [1] is < 150 nM; in experiment [2], 100 to 1000 nM; in experiment [3], < 150 nM; in experiment [4], < 100 nM.

On to `CC(=O)Nc1ncc2cc(-c3cc(NC(=O)NCCC(C)(C)C)c(F)cc3C)c(C)nc2n1` [Example 33, N-(6-(5-(3-(3,3-Dimethylbutyl)ureido)-4-fluoro-2-methylphenyl)-7-methylpyrido[2,3-d]pyrimidin-2-yl)acetamide], for which the IC50 in experiment [1] was < 150 nM; in experiment [2] it was 100 to 1000 nM; in experiment [3] it was < 150 nM; in experiment [4], < 100 nM.
